pEC50: −log10 of the molar value.
Biological target: T1, human FSH receptor (Homo sapiens, UniProt P23945)
T1 construct: expressed in transfected cells
T1 sequence (P23945 18-695): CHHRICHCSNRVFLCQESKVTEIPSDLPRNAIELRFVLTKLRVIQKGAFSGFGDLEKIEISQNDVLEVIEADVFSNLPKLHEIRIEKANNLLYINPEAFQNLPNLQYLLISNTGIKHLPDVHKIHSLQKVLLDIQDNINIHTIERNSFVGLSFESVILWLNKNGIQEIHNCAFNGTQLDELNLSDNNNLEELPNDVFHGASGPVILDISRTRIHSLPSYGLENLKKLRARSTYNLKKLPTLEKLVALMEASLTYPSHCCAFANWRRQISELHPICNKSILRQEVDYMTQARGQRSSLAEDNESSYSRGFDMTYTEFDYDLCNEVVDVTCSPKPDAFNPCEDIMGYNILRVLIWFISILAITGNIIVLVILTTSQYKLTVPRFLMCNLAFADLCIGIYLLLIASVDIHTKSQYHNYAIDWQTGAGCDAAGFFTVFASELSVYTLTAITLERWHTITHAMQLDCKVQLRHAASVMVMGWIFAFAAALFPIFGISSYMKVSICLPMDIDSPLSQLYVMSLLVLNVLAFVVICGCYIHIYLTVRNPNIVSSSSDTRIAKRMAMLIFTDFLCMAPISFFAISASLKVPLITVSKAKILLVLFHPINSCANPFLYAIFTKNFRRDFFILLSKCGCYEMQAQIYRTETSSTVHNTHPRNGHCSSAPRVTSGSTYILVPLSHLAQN
Assay: hFSHRago (CHO luc): agonistic activity at the human FSH receptor expressed in CHO cells, CRE-luciferase reporter
Assay type: cell-based
Conditions: CHO cells stably transfected with human FSH receptor and CRE/luciferase reporter; 4 hours of incubation

| pEC50 | SMILES |
| --- | --- |
| 6.17 | COc1cc2c(cc1N1CCN(C(C)=O)CC1)-c1c(-c3cccs3)cc(C(=O)N(C)C(C)(C)C)n1CC2 [Example 53, 9-(4-Acetyl-piperazin-1-yl)-8-methoxy-1-thiophen-2-yl-5,6-dihydro-pyrrolo[2,1-α]isoquinoline-3-carboxylic acid tert-butyl-methyl-amide] |
| 9.15 | COc1cc2c(cc1C=C(C)C)-c1c(-c3cccs3)cc(C(=O)N(C)C(C)(C)C)n1CC2 [Example 58b, 8-Methoxy-9-(2-methyl-propenyl)-1-thiophen-2-yl-5,6-dihydro-pyrrolo[2,1-α]isoquinoline-3-carboxylic acid tert-butyl-methyl-amide] |
| 8.28 | CC(C)Cc1cc2c(cc1O)CCn1c(C(=O)N(C)C(C)(C)C)cc(-c3cccs3)c1-2 [Example 61, 8-Hydroxy-9-isobutyl-1-thiophen-2-yl-5,6-dihydro-pyrrolo[2,1-α]isoquinoline-3-carboxylic acid tert-butyl-methyl-amide] |
| 8.51 | CNC(=O)COc1cc2c(cc1OC)CCn1c(C(=O)N(C)C(C)(C)C)cc(-c3cccs3)c1-2 [Example 64, 8-Methoxy-9-methylcarbamoylmethoxy-1-thiophen-2-yl-5,6-dihydro-pyrrolo[2,1-α]isoquinoline-3-carboxylic acid tert-butyl-methyl-amide] |
| 7.82 | COc1cc2c(cc1OCCOS(C)(=O)=O)-c1c(-c3cccs3)cc(C(=O)N(C)C(C)(C)C)n1CC2 [Example 65e, Methanesulfonic acid 2-[3-(tert-butyl-methyl-carbamoyl)-8-methoxy-1-thiophen-2-yl-5,6-dihydro-pyrrolo[2,1-α]isoquinolin-9-yloxy]-ethyl ester] |
| 7.50 | COC(=O)NCCOc1cc2c(cc1OC)CCn1c(C(=O)N(C)C(C)(C)C)cc(-c3cccs3)c1-2 [Example 66, {2-[3-(tert-Butyl-methyl-carbamoyl)-8-methoxy-1-thiophen-2-yl-5,6-dihydro-pyrrolo[2,1-α]isoquinolin-9-yloxy]-ethyl}-carbamic acid methyl ester] |
| 7.80 | COc1cc2c(cc1OCCNS(C)(=O)=O)-c1c(-c3cccs3)cc(C(=O)N(C)C(C)(C)C)n1CC2 [Example 68, 9-(2-Methanesulfonylamino-ethoxy)-8-methoxy-1-thiophen-2-yl-5,6-dihydro-pyrrolo[2,1-α]isoquinoline-3-carboxylic acid tert-butyl-methyl-amide] |
| 6.81 | COc1cc2c(cc1OCCCOC1CCCCO1)-c1c(-c3cccs3)cc(C(=O)N(C)C(C)(C)C)n1CC2 (stereo not drawn) [Example 70c, 8-Methoxy-9-[3-(tetrahydro-pyran-2-yloxy)-propoxy]-1-thiophen-2-yl-5,6-dihydro-pyrrolo[2,1-α]isoquinoline-3-carboxylic acid tert-butyl-methyl-amide] |
| 7.58 | COc1cc2c(cc1OCCSC)-c1c(-c3cccs3)cc(C(=O)N(C)C(C)(C)C)n1CC2 [Example 71, 8-Methoxy-9-(2-methylsulfanyl-ethoxy)-1-thiophen-2-yl-5,6-dihydro-pyrrolo[2,1-α]isoquinoline-3-carboxylic acid tert-butyl-methyl-amide] |

The remaining lines, values behind:

| SMILES | pEC50 |
| --- | --- |
| COc1cc2c(cc1N1CCN(C)CC1)-c1c(-c3cccs3)cc(C(=O)N(C)C(C)(C)C)n1CC2 [Example 54, 8-Methoxy-9-(4-methyl-piperazin-1-yl)-1-thiophen-2-yl-5,6-dihydro-pyrrolo[2,1-α]isoquinoline-3-carboxylic acid tert-butyl-methyl-amide] | 6.34 |
| COc1cc2c(cc1-c1cn[nH]c1)-c1c(-c3cccs3)cc(C(=O)N(C)C(C)(C)C)n1CC2 [Example 55, 8-Methoxy-9-(1H-pyrazol-4-yl)-1-thiophen-2-yl-5,6-dihydro-pyrrolo[2,1-α]isoquinoline-3-carboxylic acid tert-butyl-methyl-amide] | 8.96 |
| COc1cc2c(cc1N1CCOCC1)-c1c(-c3cccs3)cc(C(=O)N(C)C(C)(C)C)n1CC2 [Example 56, 8-Methoxy-9-morpholin-4-yl-1-thiophen-2-yl-5,6-dihydro-pyrrolo[2,1-α]isoquinoline-3-carboxylic acid tert-butyl-methyl-amide] | 7.80 |
| COc1cc2c(cc1N1CCOCC1)-c1c(-c3cccnc3)cc(C(=O)N(C)C(C)(C)C)n1CC2 [Example 57, 8-Methoxy-9-morpholin-4-yl-1-pyridin-3-yl-5,6-dihydro-pyrrolo[2,1-α]isoquinoline-3-carboxylic acid tert-butyl-methyl-amide; trifluoro acetic acid] | 6.56 |
| COc1cc2c(cc1CC(C)C)-c1c(-c3cccs3)cc(C(=O)N(C)C(C)(C)C)n1CC2 [Example 58c, 9-Isobutyl-8-methoxy-1-thiophen-2-yl-5,6-dihydro-pyrrolo[2,1-α]isoquinoline-3-carboxylic acid tert-butyl-methyl-amide] | 8.37 |
| COc1cc2c(cc1C=C(C)C)-c1c(-c3nccs3)cc(C(=O)N(C)C(C)(C)C)n1CC2 [Example 59, 8-Methoxy-9-(2-methyl-propenyl)-1-thiazol-2-yl-5,6-dihydro-pyrrolo[2,1-α]isoquinoline-3-carboxylic acid tert-butyl-methyl-amide] | 8.59 |
| COc1cc2c(cc1CC(C)C)-c1c(-c3nccs3)cc(C(=O)N(C)C(C)(C)C)n1CC2 [Example 60, 9-Isobutyl-8-methoxy-1-thiazol-2-yl-5,6-dihydro-pyrrolo[2,1-α]isoquinoline-3-carboxylic acid tert-butyl-methyl-amide] | 7.72 |
| COc1cc2c(cc1NC(=O)C(C)C)-c1c(-c3cccs3)cc(C(=O)N3CCCC3(C)C)n1CC2 [Example 62, N-[3-(2,2-Dimethyl-pyrrolidine-1-carbonyl)-8-methoxy-1-thiophen-2-yl-5,6-dihydro-pyrrolo[2,1-α]isoquinolin-9-yl]-isobutyramide] | 8.43 |
| CCOC(=O)COc1cc2c(cc1OC)CCn1c(C(=O)N(C)C(C)(C)C)cc(-c3cccs3)c1-2 [Example 63, [3-(tert-Butyl-methyl-carbamoyl)-8-methoxy-1-thiophen-2-yl-5,6-dihydro-pyrrolo[2,1-α]isoquinolin-9-yloxy]-acetic acid ethyl ester] | 6.60 |
| COc1cc2c(cc1OCCOC1CCCCO1)-c1c(-c3cccs3)cc(C(=O)N(C)C(C)(C)C)n1CC2 (stereo not drawn) [Example 65c, 8-Methoxy-9-[2-(tetrahydro-pyran-2-yloxy)-ethoxy]-1-thiophen-2-yl-5,6-dihydro-pyrrolo[2,1-α]isoquinoline-3-carboxylic acid tert-butyl-methyl-amide] | 6.99 |
| COc1cc2c(cc1OCCO)-c1c(-c3cccs3)cc(C(=O)N(C)C(C)(C)C)n1CC2 [Example 65d, 9-(2-Hydroxy-ethoxy)-8-methoxy-1-thiophen-2-yl-5,6-dihydro-pyrrolo[2,1-α]iso-quinoline-3-carboxylic acid tert-butyl-methyl-amide] | 8.89 |
| COc1cc2c(cc1OCCN=[N+]=[N-])-c1c(-c3cccs3)cc(C(=O)N(C)C(C)(C)C)n1CC2 [Example 65f, 9-(2-Azido-ethoxy)-8-methoxy-1-thiophen-2-yl-5,6-dihydro-pyrrolo[2,1-α]isoquinoline-3-carboxylic acid tert-butyl-methyl-amide] | 8.15 |
| COc1cc2c(cc1OCCNC(C)=O)-c1c(-c3cccs3)cc(C(=O)N(C)C(C)(C)C)n1CC2 [Example 67, 9-(2-Acetylamino-ethoxy)-8-methoxy-1-thiophen-2-yl-5,6-dihydro-pyrrolo[2,1-α]isoquinoline-3-carboxylic acid tert-butyl-methyl-amide] | 7.44 |
| COc1cc2c(cc1OC1CCCCO1)-c1c(-c3cccs3)cc(C(=O)N(C)C(C)(C)C)n1CC2 (stereo not drawn) [Example 69, 8-Methoxy-9-(tetrahydro-pyran-2-yloxy)-1-thiophen-2-yl-5,6-dihydro-pyrrolo[2,1-α]isoquinoline-3-carboxylic acid tert-butyl-methyl-amide] | 8.16 |
| COc1cc2c(cc1OCCCO)-c1c(-c3cccs3)cc(C(=O)N(C)C(C)(C)C)n1CC2 [Example 70d, 9-(3-Hydroxy-propoxy)-8-methoxy-1-thiophen-2-yl-5,6-dihydro-pyrrolo[2,1-α]iso-quinoline-3-carboxylic acid tert-butyl-methyl-amide] | 8.89 |
| COc1cc2c(cc1OCCCN=[N+]=[N-])-c1c(-c3cccs3)cc(C(=O)N(C)C(C)(C)C)n1CC2 [Example 70f, 9-(3-Azido-propoxy)-8-methoxy-1-thiophen-2-yl-5,6-dihydro-pyrrolo[2,1-α]isoquinoline-3-carboxylic acid tert-butyl-methyl-amide] | 7.96 |
| COc1cc2c(cc1OCCCN)-c1c(-c3cccs3)cc(C(=O)N(C)C(C)(C)C)n1CC2 [Example 70g, 9-(3-Amino-propoxy)-8-methoxy-1-thiophen-2-yl-5,6-dihydro-pyrrolo[2,1-α]iso-quinoline-3-carboxylic acid tert-butyl-methyl-amide] | 6.95 |
| COc1cc2c(cc1OCCS(C)(=O)=O)-c1c(-c3cccs3)cc(C(=O)N(C)C(C)(C)C)n1CC2 [Example 72, 9-(2-Methanesulfonyl-ethoxy)-8-methoxy-1-thiophen-2-yl-5,6-dihydro-pyrrolo[2,1-α]isoquinoline-3-carboxylic acid tert-butyl-methyl-amide] | 7.77 |

Reference: patent US8394789B2, “(Dihydro)pyrrolo[2,1-α]isoquinolines” (MSD Oss B.V., priority 2008, dated 2013)
